How the values were obtained:
Format in all cases: in vivo
[1] = system: Matricaria inodora; assay: Pre-emergence herbicidal action against MATIN; settings: visual score after 3 weeks vs untreated controls
Method in brief: (§1)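 Seeds sown in sandy loam, soil-covered; compound sprayed on soil surface pre-emergence. Application: WP/EC, 600–800 l/ha, 0.2% wetting agent. Readout: visual % damage at 3 weeks.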

[2] = system: Veronica persica; assay: Post-emergence herbicidal action against VERPE; settings: 80 g/ha, visual assessment about 3 weeks after treatment
Method in brief: (§2)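 Percent herbicidal action is rated by eye about 3 weeks after treatment against untreated controls, where 100% means dead plants and 0% means like controls. Plants in sandy loam are sprayed on green parts at the one-leaf stage with aqueous WP or EC preparations at 600 to 800 l/ha plus 0.2% wetting agent.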

[3] = system: Viola tricolor; assay: Post-emergence herbicidal action against VIOTR
Method in brief: as §2

[4] = system: Echinochloa crus-galli; assay: Pre-emergence herbicidal action against ECHCG; settings: visual score after 3 weeks vs untreated controls
Method in brief: as §1

[5] = system: Pharbitis purpurea; assay: Post-emergence herbicidal action against PHBPU; settings: visual assessment about 3 weeks after treatment
Method in brief: as §2

[6] = system: Alopecurus myosuroides; assay: Post-emergence herbicidal action against ALOMY
Method in brief: as §2

[7] = system: Hordeum murinum; assay: Post-emergence herbicidal action against HORMU
Method in brief: as §2

[8] = system: Cyperus esculentus; assay: Post-emergence herbicidal action against CYPES; settings: 80 g/ha, visual assessment about 3 weeks after treatment
Method in brief: as §2

[9] = system: Veronica persica; assay: Pre-emergence herbicidal action against VERPE
Method in brief: as §1

[10] = system: Stellaria media; assay: Post-emergence herbicidal action against STEME; settings: visual assessment about 3 weeks after treatment
Method in brief: as §2

[11] = system: Viola tricolor; assay: Pre-emergence herbicidal action against VIOTR
Method in brief: as §1

[12] = system: Setaria viridis; assay: Post-emergence herbicidal action against SETVI; settings: visual assessment about 3 weeks after treatment
Method in brief: as §2

[13] = system: Abutilon theophrasti; assay: Pre-emergence herbicidal action against ABUTH; settings: visual score after 3 weeks vs untreated controls
Method in brief: as §1

[14] = system: Alopecurus myosuroides; assay: Pre-emergence herbicidal action against ALOMY; settings: visual score after 3 weeks vs untreated controls
Method in brief: as §1

[15] = system: Hordeum murinum; assay: Pre-emergence herbicidal action against HORMU; settings: visual score after 3 weeks vs untreated controls
Method in brief: as §1

[16] = system: Lolium rigidum; assay: Post-emergence herbicidal action against LOLRI; settings: 80 g/ha
Method in brief: as §2

[17] = system: Stellaria media; assay: Pre-emergence herbicidal action against STEME
Method in brief: as §1

[18] = system: Pharbitis purpurea; assay: Pre-emergence herbicidal action against PHBPU; settings: visual score after 3 weeks vs untreated controls
Method in brief: as §1

[19] = system: Polygonum convolvulus; assay: Pre-emergence herbicidal action against POLCO
Method in brief: as §1

[20] = system: Abutilon theophrasti; assay: Post-emergence herbicidal action against ABUTH
Method in brief: as §2

[21] = system: Avena fatua; assay: Post-emergence herbicidal action against AVEFA; settings: 80 g/ha, visual assessment about 3 weeks after treatment
Method in brief: as §2

[22] = system: Echinochloa crus-galli; assay: Post-emergence herbicidal action against ECHCG; settings: visual assessment about 3 weeks after treatment
Method in brief: as §2

[23] = system: Lolium rigidum; assay: Pre-emergence herbicidal action against LOLRI
Method in brief: as §1

[24] = system: Matricaria inodora; assay: Post-emergence herbicidal action against MATIN; settings: visual assessment about 3 weeks after treatment
Method in brief: as §2

[25] = system: Setaria viridis; assay: Pre-emergence herbicidal action against SETVI
Method in brief: as §1

[26] = system: Amaranthus retroflexus; assay: Pre-emergence herbicidal action against AMARE; settings: visual score after 3 weeks vs untreated controls
Method in brief: as §1

[27] = system: Cyperus esculentus; assay: Pre-emergence herbicidal action against CYPES; settings: visual score after 3 weeks vs untreated controls
Method in brief: as §1

[28] = system: Amaranthus retroflexus; assay: Post-emergence herbicidal action against AMARE; settings: visual assessment about 3 weeks after treatment
Method in brief: as §2

[29] = system: Polygonum convolvulus; assay: Post-emergence herbicidal action against POLCO; settings: 80 g/ha, visual assessment about 3 weeks after treatment
Method in brief: as §2

[30] = system: Avena fatua; assay: Pre-emergence herbicidal action against AVEFA; settings: visual score after 3 weeks vs untreated controls
Method in brief: as §1

SMILES: Cn1nnnc1NC(=O)c1ccc(C(F)(F)F)c(C(=O)n2cccn2)c1Cl [Example 1-153]
- Pre-emergence action against MATIN ([1]; 20 g/ha): 90%
- Pre-emergence action against MATIN ([1]; 80 g/ha): 100%
- Pre-emergence action against MATIN ([1]; 320 g/ha): 100%
- Post-emergence action against VERPE in % [2]: 80%
- Post-emergence action against VIOTR in % ([3]; 5 g/ha): 80%
- Post-emergence action against VIOTR in % ([3]; 20 g/ha): 90%
- Post-emergence action against VIOTR in % ([3]; 80 g/ha): 90%
- Pre-emergence action against ECHCG ([4]; 20 g/ha): 100%
- Pre-emergence action against ECHCG ([4]; 80 g/ha): 100%
- Pre-emergence action against ECHCG ([4]; 320 g/ha): 100%
- Post-emergence action against PHBPU in % ([5]; 5 g/ha): 80%
- Post-emergence action against PHBPU in % ([5]; 20 g/ha): 90%
- Post-emergence action against PHBPU in % ([5]; 80 g/ha): 90%
- Post-emergence action against ALOMY ([6]; 5 g/ha): 80%
- Post-emergence action against ALOMY ([6]; 20 g/ha): 90%
- Post-emergence action against ALOMY ([6]; 80 g/ha): 90%
- Post-emergence action against HORMU in % ([7]; 20 g/ha): 80%
- Post-emergence action against HORMU in % ([7]; 80 g/ha): 90%
- Post-emergence action against CYPES in % [8]: 90%
- Pre-emergence action against VERPE ([9]; 80 g/ha): 90%
- Pre-emergence action against VERPE ([9]; 320 g/ha): 100%
- Post-emergence action against STEME in % ([10]; 5 g/ha): 100%
- Post-emergence action against STEME in % ([10]; 20 g/ha): 100%
- Post-emergence action against STEME in % ([10]; 80 g/ha): 100%
- Pre-emergence action against VIOTR ([11]; 80 g/ha): 100%
- Pre-emergence action against VIOTR ([11]; 320 g/ha): 100%
- Post-emergence action against SETVI in % ([12]; 20 g/ha): 100%
- Post-emergence action against SETVI in % ([12]; 80 g/ha): 100%
- Pre-emergence action against ABUTH ([13]; 20 g/ha): 100%
- Pre-emergence action against ABUTH ([13]; 80 g/ha): 100%
- Pre-emergence action against ABUTH ([13]; Dosage column 320 g/ha (heading prints 3200 g/ha)): 100%
- Pre-emergence action against ALOMY ([14]; 80 g/ha): 80%
- Pre-emergence action against ALOMY ([14]; 320 g/ha): 100%
- Pre-emergence action against HORMU ([15]; 80 g/ha): 80%
- Pre-emergence action against HORMU ([15]; 320 g/ha): 100%
- Post-emergence action against LOLRI in % [16]: 90%
- Pre-emergence action against STEME ([17]; 20 g/ha): 90%
- Pre-emergence action against STEME ([17]; 80 g/ha): 90%
- Pre-emergence action against STEME ([17]; 320 g/ha): 100%
- Pre-emergence action against PHBPU ([18]; 80 g/ha): 90%
- Pre-emergence action against PHBPU ([18]; 320 g/ha): 90%
- Pre-emergence action against POLCO ([19]; 80 g/ha): 90%
- Pre-emergence action against POLCO ([19]; 320 g/ha): 100%
- Post-emergence action against ABUTH ([20]; 5 g/ha): 90%
- Post-emergence action against ABUTH ([20]; 20 g/ha): 90%
- Post-emergence action against ABUTH ([20]; 80 g/ha): 90%
- Post-emergence action against AVEFA in % [21]: 100%
- Post-emergence action against ECHCG in % ([22]; 5 g/ha): 90%
- Post-emergence action against ECHCG in % ([22]; 20 g/ha): 100%
- Post-emergence action against ECHCG in % ([22]; 80 g/ha): 100%
- Pre-emergence action against LOLRI ([23]; 80 g/ha): 80%
- Pre-emergence action against LOLRI ([23]; 320 g/ha): 90%
- Post-emergence action against MATIN in % ([24]; 5 g/ha): 90%
- Post-emergence action against MATIN in % ([24]; 20 g/ha): 90%
- Post-emergence action against MATIN in % ([24]; 80 g/ha): 100%
- Pre-emergence action against SETVI ([25]; 20 g/ha): 100%
- Pre-emergence action against SETVI ([25]; 80 g/ha): 100%
- Pre-emergence action against SETVI ([25]; 320 g/ha): 100%
- Pre-emergence action against AMARE ([26]; 20 g/ha): 100%
- Pre-emergence action against AMARE ([26]; 80 g/ha): 100%
- Pre-emergence action against AMARE ([26]; 320 g/ha): 100%
- Pre-emergence action against CYPES ([27]; 20 g/ha): 100%
- Pre-emergence action against CYPES ([27]; 80 g/ha): 100%
- Pre-emergence action against CYPES ([27]; 320 g/ha): 100%
- Post-emergence action against AMARE in % ([28]; 5 g/ha): 100%
- Post-emergence action against AMARE in % ([28]; 20 g/ha): 100%
- Post-emergence action against AMARE in % ([28]; 80 g/ha): 100%
- Post-emergence action against POLCO in % [29]: 90%
- Pre-emergence action against AVEFA ([30]; 80 g/ha): 100%
- Pre-emergence action against AVEFA ([30]; 320 g/ha): 100%

Source: patent US12599136B2, “Substituted isophthalic acid diamides and their use as herbicides” (Bayer Aktiengesellschaft, priority 2020, dated 2026)
